Drawing on patent US9273057B2 (Bristol-Myers Squibb Company, priority 2012, dated 2016), this text covers IC50 for 24 compounds.

Where a name gives a salt, the structure may show the parent alone.

The target of the assay is CK2A1 (CK2α/β) (Homo sapiens, UniProt P68400). As to the kind of experiment: CK2 kinase assay, CK2A1 (CK2α/β). Conditions: Table A; read-out: CK2A1 (CK2α/β) (IC50). It counts as biochemical.
CK2A1 (CK2α/β), sequence (P68400 whole entry, species assumed): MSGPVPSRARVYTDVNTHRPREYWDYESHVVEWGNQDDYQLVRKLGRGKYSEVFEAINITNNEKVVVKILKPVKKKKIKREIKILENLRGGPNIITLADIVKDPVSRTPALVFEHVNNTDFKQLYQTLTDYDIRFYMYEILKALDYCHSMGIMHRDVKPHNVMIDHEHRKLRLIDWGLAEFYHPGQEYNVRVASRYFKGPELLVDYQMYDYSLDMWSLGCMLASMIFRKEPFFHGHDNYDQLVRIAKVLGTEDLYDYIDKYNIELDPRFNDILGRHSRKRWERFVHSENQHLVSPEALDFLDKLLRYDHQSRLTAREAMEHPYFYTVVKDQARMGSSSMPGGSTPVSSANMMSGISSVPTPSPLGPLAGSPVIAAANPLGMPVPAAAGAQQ
CK2A1 (CK2α/β), sequence (P67870 whole entry partner, species assumed): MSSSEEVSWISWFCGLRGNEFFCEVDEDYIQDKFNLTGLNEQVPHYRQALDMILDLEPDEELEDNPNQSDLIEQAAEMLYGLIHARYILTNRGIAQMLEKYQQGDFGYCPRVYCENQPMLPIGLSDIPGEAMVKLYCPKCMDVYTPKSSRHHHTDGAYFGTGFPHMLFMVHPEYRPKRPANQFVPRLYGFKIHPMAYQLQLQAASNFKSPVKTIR
Protocol: For example, in vitro protein kinase assays may be conducted with a relevant purified protein kinase and an appropriate synthetic substrate to determine the inhibitory activity of the compounds. […] Reaction mixtures were incubated at 30° C. for 1 hour, and reaction products were captured by binding to phosphocellulose (P81) filter plates. Incorporation of radioactive phosphate into the peptide substrate was determined by liquid scintillation counting.
The inhibitory activity of the instant compounds may also be measured by recombinant CK2 holoenzyme kinase assays. The assays were performed in U-bottom 384-well plates. […] The reaction was initiated by the combination of bacterially expressed, CK2 α/β or CK2 holoenzyme with substrates and test compounds. The reaction was incubated at room temperature for 60 minutes and terminated by adding 30 μl of 35 mM EDTA to each sample. The reaction mixture was analyzed on the Caliper LABCHIP® 3000 (Caliper, Hopkinton, Mass.) by electrophoretic separation of the fluorescent substrate and phosphorylated product. […] Compounds were dissolved at 10 mM in dimethylsulfoxide (DMSO) and evaluated at eleven concentrations. IC50 values were derived by non-linear regression analysis.
For `CC(C)(O)CN1CC(N2CCC(c3cc(C#N)cc(Nc4nc(NC5CC5)c5ncc(C#N)n5n4)c3Cl)CC2)C1` [Example 324, 2-((2-chloro-5-cyano-3-(1-(1-(2-hydroxy-2-methylpropyl)-3-azetidinyl)-4-piperidinyl)phenyl)amino)-4-(cyclopropylamino)imidazo [2,1-f][1,2,4]triazine-7-carbonitrile], the IC50 was 0.78 nM. The value for `N#Cc1cc(Nc2nc(NC3CC3)c3ncc(C#N)n3n2)c(F)c(N2CCN(C3CCOC3)CC2)c1` (stereo not drawn) [Example 554, 2-((5-cyano-2-fluoro-3-(4-(tetrahydrofuran-3-yl)piperazin-1-yl)phenyl)amino)-4-(cyclopropylamino)imidazo[2,1-f][1,2,4]triazine-7-carbonitrile] was 5.03 nM. Consider `CC(C)(N)CC(=O)N1CC(N2CCN(c3cc(C#N)cc(Nc4nc(NC5CC5)c5ncc(C#N)n5n4)c3Cl)CC2)C1` [Example 501, 2-[(3-{4-[1-(3-amino-3-methylbutanoyl)azetidin-3-yl]piperazin-1-yl}-2-chloro-5-cyanophenyl)amino]-4-(cyclopropylamino)imidazo[2,1-f][1,2,4]triazine-7-carbonitrile], for which the IC50 stood at 2.64 nM. To `COC(=O)NC1CCN(c2cc(C#N)cc(Nc3nc(NC4CC4)c4ncc(C#N)n4n3)c2Cl)C[C@H]1N(C)CC(C)(C)O` (stereo in doubt) [Example 767, methyl N-[(3R,4S)-1-(2-chloro-5-cyano-3-{[7-cyano-4-(cyclopropylamino)imidazo [2,1-f][1,2,4]triazin-2-yl]amino}phenyl)-3-[(2-hydroxy-2-methylpropyl)(methyl)amino]piperidin-4-yl] carbamate] belongs 18.1 nM. As for `CCNc1nc(Nc2cc(C#N)cc(N3CC[C@@H](NC(=O)OC)[C@H](OC(=O)CC[C@H](N)C(=O)OC)C3)c2Cl)nn2c(C#N)cnc12` [Example 814, (S)-5-((3R,4R)-1-(2-chloro-5-cyano-3-((7-cyano-4-(ethylamino)imidazo[2,1-f][1,2,4]triazin-2-yl)amino)phenyl)-4-((methoxycarbonyl)amino)piperidin-3-yl) 1-methyl 2-aminopentanedioate hydrochloride], the IC50 worked out at 24.9 nM.

`COC(=O)N[C@H]1CCN(c2cc(C#N)cc(Nc3nc(NC4CC4)c4ncc(C#N)n4n3)c2Cl)CC1N(C)C1COC1` (stereo partly drawn) [Example 763, methyl N-[(4S)-1-(2-chloro-5-cyano-3-{[7-cyano-4-(cyclopropylamino)imidazo [2,1-f][1,2,4]triazin-2-yl]amino}phenyl)-3-[methyl(oxetan-3-yl)amino]piperidin-4-yl]carbamate]: the IC50 turned out to be 1.35 nM. The value for `CC(O)c1cc(C#N)cc(Nc2nc(NC3CC3)c3ncc(C#N)n3n2)c1Cl` (racemic) [Example 677, (+/−)-2-((2-chloro-5-cyano-3-(1-hydroxyethyl)phenyl)amino)-4-(cyclopropylamino)imidazo[2,1-f][1,2,4]triazine-7-carbonitrile] was 0.47 nM.

As for `COC(=O)N[C@@H]1CCN(c2cc(C#N)cc(Nc3nc(NC4CC4)c4ncc(C#N)n4n3)c2Cl)C[C@H]1OC(=O)[C@@H](N)C(C)C` (racemic) [Example 192, (+/−)-(R)-(3S,4S)-1-(2-chloro-5-cyano-3-((7-cyano-4-(cyclopropylamino)imidazo[2,1-f][1,2,4]triazin-2-yl)amino)phenyl)-4-((methoxycarbonyl)amino)piperidin-3-yl 2-amino-3-methylbutanoate], the IC50 amounted to 2.12 nM.

For the compound `COC(=O)N[C@@H]1CN(c2cc(C#N)cc(Nc3nc(NC4CC4)c4ncc(C#N)n4n3)c2Cl)C[C@H]1C` (racemic) [Example 21, (+/−) methyl ((3S,4R)-1-(2-chloro-5-cyano-3-((7-cyano-4-(cyclopropylamino)imidazo [2,1-f][1,2,4]triazin-2-yl)amino)phenyl)-4-methyl-3-pyrrolidinyl)carbamate], the IC50 stood at 1.16 nM. The value for `COC(=O)N[C@H]1CCN(c2cc(C#N)cc(Nc3nc(NC4CC4)c4ncc(C#N)n4n3)c2Cl)C[C@H]1NC(C)C` [Example 756, methyl N-[(3R,4S)-1-(2-chloro-5-cyano-3-{[7-cyano-4-(cyclopropylamino)imidazo [2,1-f][1,2,4]triazin-2-yl]amino}phenyl)-3-[(propan-2-yl)amino]piperidin-4-yl]carbamate] was 4.43 nM; that for `N#Cc1cc(Nc2nc(NC3CC3)c3ncc(C#N)n3n2)c(Cl)c(N2CCC(NC3CCOC3)CC2)c1` (racemic) [Example 112, (+/−) 2-((2-chloro-5-cyano-3-(4-(tetrahydro-3-furanylamino)-1-piperidinyl)phenyl)amino)-4-(cyclopropylamino)imidazo [2,1-f][1,2,4]triazine-7-carbonitrile] was 2.56 nM; that for `CCNc1nc(Nc2cc(C#N)cc(N3CC[C@@H](NC(=O)OC)[C@@H](N(C)CC(C)(C)O)C3)c2Cl)nn2c(C#N)cnc12` [Example 771, methyl N-[(3S,4R)-1-(2-chloro-5-cyano-3-{[7-cyano-4-(ethylamino)imidazo[2,1-f][1,2,4]triazin-2-yl]amino}phenyl)-3-[(2-hydroxy-2-methylpropyl)(methyl)amino]piperidin-4-yl] carbamate] was 7 nM. For the compound `CCNc1nc(Nc2ccc3c(c2)c(C#N)cn3C2CCN(CC(O)CF)CC2)nn2c(C#N)cnc12` (racemic) [Example 824, (+/−)-2-((3-cyano-1-(1-(3-fluoro-2-hydroxypropyl)piperidin-4-yl)-1H-indol-5-yl)amino)-4-(ethylamino)imidazo[2,1-f][1,2,4]triazine-7-carbonitrile], the IC50 worked out at 0.8 nM. The value for `CN1CCN(c2cc(Cl)c(Nc3nc(NC4CC4)c4ncc(C#N)n4n3)cc2C#N)CC1` [Example 432, 2-((2-chloro-5-cyano-4-(4-methyl-1-piperazinyl)phenyl)amino)-4-(cyclopropylamino)imidazo[2,1-f][1,2,4]triazine-7-carbonitrile] was 2.9 nM; that for `COC(=O)N1CCN(C2CN(c3cc(C#N)cc(Nc4nc(NC5CC5)c5ncc(C#N)n5n4)c3Cl)C2)CC1` [Example 153, methyl 4-(1-(2-chloro-5-cyano-3-((7-cyano-4-(cyclopropylamino)imidazo [2,1-f][1,2,4]triazin-2-yl)amino)phenyl)-3-azetidinyl)-1-piperazinecarboxylate] was 0.65 nM; that for `CCNc1nc(Nc2cc(C#N)cc(N3CCN4C[C@H](O)C[C@H]4C3)c2Cl)nn2c(C#N)cnc12` (racemic) [Example 436, (+/−)-2-((2-chloro-5-cyano-3-((7R,8aS)-7-hydroxyhexahydropyrrolo[1,2-a]pyrazin-2(1H)-yl)phenyl)amino)-4-(ethylamino)imidazo[2,1-f][1,2,4]triazine-7-carbonitrile] was 2.51 nM. Consider `CCNc1nc(Nc2cc(C#N)cc(N3CC[C@@H](NC(=O)OC)[C@H](OC(=O)CCCCN)C3)c2Cl)nn2c(C#N)cnc12` [Example 816, (3R,4R)-1-(2-chloro-5-cyano-3-((7-cyano-4-(ethylamino)imidazo[2,1-f][1,2,4]triazin-2-yl)amino)phenyl)-4-((methoxycarbonyl)amino)piperidin-3-yl 5-aminopentanoate hydrochloride], for which the IC50 amounted to 5.2 nM.

For `CCNc1nc(Nc2cc(C#N)cc(N3CCC(NC(=O)OC)C(N[C@@H](C)C(N)=O)C3)c2Cl)nn2c(C#N)cnc12` (stereo in doubt) [Example 762, methyl N-[(3R,4S)-3-[(1-carbamoylethyl)amino]-1-(2-chloro-5-cyano-3-{[7-cyano-4-(ethylamino)imidazo[2,1-f][1,2,4]triazin-2-yl]amino}phenyl)piperidin-4-yl]carbamate], the IC50 amounted to 2.1 nM. To `Cc1cc(CNC2CCN(c3cc(C#N)cc(Nc4nc(NC5CC5)c5ncc(C#N)n5n4)c3Cl)CC2)on1` [Example 140, 2-(2-chloro-5-cyano-3-(4-((3-methylisoxazol-5-yl)methylamino)piperidin-1-yl)phenylamino)-4-(cyclopropylamino)imidazo [1,2-f][1,2,4]triazine-7-carbonitrile] belongs 2.68 nM. For `N#Cc1cc(Nc2nc(NC3CC3)c3ncc(C#N)n3n2)c(Cl)c(N2CCC(N[C@H]3CC[C@H](O)C3)CC2)c1` (racemic) [Example 120, (+/−) 2-((2-chloro-5-cyano-3-(4-(((1S,3S)-3-hydroxycyclopentyl)amino)-1-piperidinyl)phenyl)amino)-4-(cyclopropylamino)imidazo [2,1-f][1,2,4]triazine-7-carbonitrile], the IC50 was found to be 0.69 nM.

Take `N#Cc1cc(Nc2nc(NC3CC3)c3ncc(C#N)n3n2)c(Cl)c(N2CC(N3CCNCC3)C2)c1` [Example 155, 2-((2-chloro-5-cyano-3-(3-(1-piperazinyl)-1-azetidinyl)phenyl)amino)-4-(cyclopropylamino)imidazo [2,1-f][1,2,4]triazine-7-carbonitrile]: the IC50 was 0.42 nM. To `CCNc1nc(Nc2ccc3c(c2)c(C#N)cn3C2CCN([C@H]3CS(=O)(=O)C[C@@H]3O)CC2)nn2c(C#N)cnc12` [Example 828, 2-((3-cyano-1-(1-((3R,4R)-4-hydroxy-1,1-dioxidotetrahydrothiophen-3-yl)piperidin-4-yl)-1H-indol-5-yl)amino)-4-(ethylamino)imidazo[2,1-f][1,2,4]triazine-7-carbonitrile] belongs 0.36 nM; to `CCNc1nc(Nc2cc(C#N)cc(N3CCOC(C(C)(C)O)C3)c2Cl)nn2c(C#N)cnc12` (racemic) [Example 361, (+/−) 2-((2-chloro-5-cyano-3-(2-(1-hydroxy-1-methylethyl)-4-morpholinyl)phenyl)amino)-4-(ethylamino)imidazo[2,1-f][1,2,4]triazine-7-carbonitrile], 0.85 nM.

For `N#Cc1cc(CN2CCNCC2)c(Cl)c(Nc2nc(NC3CC3)c3ncc(C#N)n3n2)c1` [Example 668, 2-((2-chloro-5-cyano-3-(piperazin-1-ylmethyl)phenyl)amino)-4-(cyclopropylamino)imidazo[2,1-f][1,2,4]triazine-7-carbonitrile], the IC50 was found to be 0.76 nM.
